Data taken from patent US12491252B2, “Substituted 3-amino-5-phenylbenzamide compounds as covalent inhibitors of enhancer zeste homolog 2 (EZH2) and proteolysis-targeting chimeric derivatives thereof (PROTACs) that induce degradation of EZH2” (Northwestern University, priority 2021, dated 2025).
Read-outs that look alike come from different tables or passages of the source. One block for each compound: values may come before it.

Key:
[1] = tested on: EED; test: Western blot of EED in SU-DHL6 cells; format: cell-based; conditions: FIG. 33, 48 hours
Method: (§1) FIG. 33. […] Cell were treated for 48 hours with the indicated concentrations of compounds.

[2] = tested on: SU-DHL6 cells; test: WST cell viability assay in SU-DHL6 cells; format: cell-based
Method: (§2) Cell proliferation was measured using WST-1 Kit (Clontech) according to manufacturer's protocol.

[3] = tested on: C4-2B cells; test: Imaging of C4-2B cells (cell density); format: cell-based; conditions: FIG. 21, 12 days' treatment
Text: FIG. 21. Imaging of C4-2B cells after 12 days' treatment with the indicated compounds.

[4] = tested on: SUZ12; test: Western blot of SUZ12 in SU-DHL6 cells; format: cell-based; conditions: FIG. 33, 48 hours
Method: as §1

[5] = tested on: C4-2B cells; test: Colony assay using C4-2B cells; format: cell-based; conditions: FIG. 20B, treatment for 7 days
Method: (§3) FIG. 20A-20B. (FIG. 20A) Live imaging cell proliferation of C4-2B cells. Cells were treated with indicated compounds and monitored over 168 hours for proliferation by phase object confluence. DMSO is set as the negative control. […] (FIG. 20B) Colony assays using C4-2B cells after treatment with the indicated compounds for 7 days.

[6] = tested on: SU-DHL4 cells; test: WST cell viability assay in SU-DHL4 cells; format: cell-based; conditions: for IC50: Homo sapiens, variable slope, read-out: IC50 (best-fit value)
Method: as §2

[7] = tested on: SUZ12; test: Western blot of SUZ12 in SU-DHL4 cells; format: cell-based; conditions: FIG. 33, 48 hours
Method: as §1

[8] = target: T1, EZH2 (Homo sapiens, UniProt Q15910); test: Western blot of EZH2 with esiRNA knockdown of VHL or siRNA control; format: cell-based; conditions: FIG. 16, duplicate
Method: FIG. 16. Cells were treated with indicated compounds with either esiRNA knockdown of VHL or siRNA control (no EZH2 knockdown) and blotted for EZH2 and VHL. […] Experiment was run in duplicate with both replicates shown on the left and right sides.

[9] = tested on: prostate cancer cell lines; test: WST-1 cell proliferation in multiple prostate cancer cell lines; format: cell-based; conditions: WST-1 Kit
Method: as §2

[10] = target: T1, EZH2; test: Western blot of EZH2 protein in C4-2B cells; conditions: for Degradation of EZH2: FIG. 14, 10 μM for 6 days
[11] = target: T1, EZH2; test: Western blot of EZH2 protein in DU-145 cells; conditions: FIG. 27, 6 days treatment
Text: (Upper right western blot) Western blot analysis of EZH2 protein in DU-145 cells after 6 days treatment.

[12] = tested on: LNCaP cells; test: Imaging of LnCaP cells (cell density); format: cell-based; conditions: FIG. 18, 12 days' treatment
Text: FIG. 18. Imaging of LnCaP cells after 12 days' treatment with the indicated compounds.

[13] = tested on: 22Rv1 cells; test: WST cell viability assay in 22Rv1 cells; format: cell-based
Method: as §2

[14] = tested on: C4-2B cells; test: Live imaging cell proliferation of C4-2B cells; format: cell-based; conditions: FIG. 20A, monitored over 168 hours
Text: FIG. 20A-20B. (FIG. 20A) Live imaging cell proliferation of C4-2B cells. […] DMSO is set as the negative control. […] (FIG. 20B) Colony assays using C4-2B cells after treatment with the indicated compounds for 7 days.

[15] = Pharmacokinetics in mice, IP cassette dosing, plasma LC/MS/MS; format: in vivo, C57Bl/6 mouse; conditions: mouse, C57Bl/6 mice, 4 mg/kg IP, cassette format
Method: FIG. 35. Pharmacokinetics of indicated compounds. Compounds were administered to C57Bl/6 mouse mice at 4 mg/kg using intraperitoneal (IP) injection in cassette format. Plasma was collected at the indicated time points and analyzed by LC/MS/MS using standard methods.
For assessing pharmacokinetics, compounds were administered to C57Bl/6 mouse mice at 4 mg/kg using intraperitoneal (IP) injection in cassette format. Plasma was collected at the indicated time points and analyzed by LC/MS/MS using standard methods.

[16] = tested on: C4-2B cells; test: WST cell proliferation assay in C4-2B cells; format: cell-based; conditions: FIG. 22, 6 days
Method: FIG. 22A-22B. WST cell proliferation assay of indicated compounds in C4-2B cells. Cells were treated for 6 days. […] (FIG. 19B) Effects of indicated compounds on EZH2, AR, and FOXA1 by western blot at 1 μM in C4-2B cells.
as §2

[17] = tested on: H3K27me3; test: Western blot of H3K27me3 levels in C4-2B cells; format: cell-based; conditions: FIG. 14, 10 μM for 6 days
[18] = tested on: LNCaP cells; test: WST cell proliferation/viability assay in LNCaP cells; format: cell-based; conditions: for Inhibition of proliferation (WST): FIG. 19A, 6 days
Method: FIG. 19A-19B. (FIG. 19A) WST cell proliferation assay of indicated compounds in LNCaP cells. […] (FIG. 19B) Effects of indicated compounds on EZH2, AR, and FOXA1 by western blot at 1 μM in LNCaP cells.
as §2

[19] = tested on: EZH2; test: Western blot of EZH2 in SU-DHL4 cells; format: cell-based; conditions: FIG. 33, 48 hours
[20] = tested on: lymphoma cell lines; test: WST-1 cell proliferation in multiple lymphoma cell lines; format: cell-based; conditions: WST-1 Kit
Method: as §2

[21] = tested on: LNCaP cells; test: Colony assay using LnCaP cells; format: cell-based; conditions: FIG. 17B, treatment for 7 days
Method: as §3, with “FIG. 17A-17B.” for “FIG. 20A-20B.”, “(FIG. 17A)” for “(FIG. 20A)”, “of LNCaP” for “of C4-2B”, “(FIG. 17B)” for “(FIG. 20B)”, “using LnCaP” for “using C4-2B”

[22] = tested on: SUZ12; test: Western blot of SUZ12 in C4-2B cells; format: cell-based; conditions: FIG. 14, 10 μM for 6 days
[23] = tested on: EZH2; test: Western blot of EZH2 in SU-DHL6 cells; format: cell-based; conditions: FIG. 33, 48 hours
[24] = tested on: LNCaP cells; test: Live imaging cell proliferation of LNCaP cells; format: cell-based; conditions: FIG. 17A, monitored over 168 hours
Text: FIG. 17A-17B. (FIG. 17A) Live imaging cell proliferation of LNCaP cells. […] DMSO is set as the negative control. […] (FIG. 17B) Colony assays using LnCaP cells after treatment with the indicated compounds for 7 days.

[25] = target: T1, EZH2; test: Western blot of EZH2 protein in PC3 cells; conditions: FIG. 26, 6 days treatment
Text: (Upper right western blot) Western blot analysis of EZH2 protein in PC3 cells after 6 days treatment.

[26] = tested on: 22Rv1 cells; test: Cell titer glo cell viability assay in 22Rv1 cells; format: cell-based
[27] = tested on: EED; test: Western blot of EED in SU-DHL4 cells; format: cell-based; conditions: FIG. 33, 48 hours
Method: as §1

[28] = target: T1, EZH2; test: Ubiquitination of EZH2 in C4-2B cells with MG132; format: cell-based; conditions: FIG. 15B, plus proteasome inhibitor MG132
[29] = Table 6, WST1 with higher dose on SU-DHL4
[30] = Table 8, WST1 within 1 μM on SU-DHL4
[31] = Table 9, WST1 within 1 μM on SU-DHL4 (as titled)
[32] = Table 7, WST1 with higher dose on SU-DHL6

T1 sequence (Q15910 whole entry): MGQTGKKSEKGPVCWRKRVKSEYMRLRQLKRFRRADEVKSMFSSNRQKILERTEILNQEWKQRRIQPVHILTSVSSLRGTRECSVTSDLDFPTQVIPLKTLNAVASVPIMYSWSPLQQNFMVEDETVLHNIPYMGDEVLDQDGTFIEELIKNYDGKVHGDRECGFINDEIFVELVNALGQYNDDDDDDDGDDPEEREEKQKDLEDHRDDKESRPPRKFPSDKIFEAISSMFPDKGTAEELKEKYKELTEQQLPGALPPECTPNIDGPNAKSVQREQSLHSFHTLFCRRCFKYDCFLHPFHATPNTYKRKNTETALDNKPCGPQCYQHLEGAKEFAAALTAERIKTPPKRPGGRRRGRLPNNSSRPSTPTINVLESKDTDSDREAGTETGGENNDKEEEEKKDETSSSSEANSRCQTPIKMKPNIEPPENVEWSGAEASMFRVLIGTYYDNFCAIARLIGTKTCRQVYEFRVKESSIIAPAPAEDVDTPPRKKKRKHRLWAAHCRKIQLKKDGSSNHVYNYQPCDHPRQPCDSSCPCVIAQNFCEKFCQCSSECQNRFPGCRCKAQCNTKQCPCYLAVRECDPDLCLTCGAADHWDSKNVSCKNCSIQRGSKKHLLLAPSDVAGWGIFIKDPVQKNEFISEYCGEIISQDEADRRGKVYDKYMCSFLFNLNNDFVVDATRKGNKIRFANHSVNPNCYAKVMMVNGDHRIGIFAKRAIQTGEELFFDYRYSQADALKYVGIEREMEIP
T1 sequence (Q15022 whole entry partner): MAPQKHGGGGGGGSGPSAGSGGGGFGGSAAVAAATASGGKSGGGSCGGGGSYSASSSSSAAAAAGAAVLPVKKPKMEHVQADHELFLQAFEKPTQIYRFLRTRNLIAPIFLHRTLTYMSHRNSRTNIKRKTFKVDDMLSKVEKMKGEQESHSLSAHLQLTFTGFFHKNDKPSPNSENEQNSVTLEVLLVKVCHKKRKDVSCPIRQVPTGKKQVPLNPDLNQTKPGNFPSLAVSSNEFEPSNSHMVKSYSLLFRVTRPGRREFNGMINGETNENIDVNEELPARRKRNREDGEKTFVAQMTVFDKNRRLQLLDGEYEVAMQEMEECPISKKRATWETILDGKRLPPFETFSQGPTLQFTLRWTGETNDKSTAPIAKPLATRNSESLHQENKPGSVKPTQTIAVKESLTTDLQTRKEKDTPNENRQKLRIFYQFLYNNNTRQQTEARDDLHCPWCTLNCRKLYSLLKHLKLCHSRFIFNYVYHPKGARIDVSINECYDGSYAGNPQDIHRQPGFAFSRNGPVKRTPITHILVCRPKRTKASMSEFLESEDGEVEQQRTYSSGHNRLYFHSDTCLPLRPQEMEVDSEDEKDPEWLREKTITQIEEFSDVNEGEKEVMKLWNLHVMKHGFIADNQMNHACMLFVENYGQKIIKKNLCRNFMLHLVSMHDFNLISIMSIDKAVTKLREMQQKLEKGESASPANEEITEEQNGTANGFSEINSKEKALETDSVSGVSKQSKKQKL
T1 sequence (O75530 whole entry partner): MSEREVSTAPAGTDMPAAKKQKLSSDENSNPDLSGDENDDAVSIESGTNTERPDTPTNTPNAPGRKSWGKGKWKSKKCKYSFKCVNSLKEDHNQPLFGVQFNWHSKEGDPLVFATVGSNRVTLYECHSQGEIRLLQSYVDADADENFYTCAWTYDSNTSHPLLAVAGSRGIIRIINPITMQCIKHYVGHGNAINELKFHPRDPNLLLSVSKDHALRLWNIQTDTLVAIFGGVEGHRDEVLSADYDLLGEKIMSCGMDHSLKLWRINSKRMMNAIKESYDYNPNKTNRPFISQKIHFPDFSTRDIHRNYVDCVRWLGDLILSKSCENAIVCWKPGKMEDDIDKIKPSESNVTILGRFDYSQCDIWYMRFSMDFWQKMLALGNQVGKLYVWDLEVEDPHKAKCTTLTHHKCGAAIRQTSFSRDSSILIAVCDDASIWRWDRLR

- IC50 ([2]; Homo sapiens, SU-DHL-6, Table 7, WST1 test cell viability with higher dose on SU-DHL6, variable slope, read-out: IC50 (best-fit value)): 892 nM
- IC50 ([6]; SU-DHL-4, Table 8, WST1 test cell viability within 1 μM on SU-DHL4): 2500 nM
- IC50 ([6]; SU-DHL-4, Table 9, WST1 test cell viability within 1 μM on SU-DHL4 (as titled)): 337 nM
- Ability to degrade EZH2 with siRNA control (VHL present) ([8]; siRNA control lane): able to strongly degrade EZH2
- Degrading EZH2 protein at nM doses, versus 2304 ([10]; FIG. 10, 24 hours): more effective than 2304
- Degradation of EZH2 [10]: strong degradation of EZH2
- EZH2 protein (western blot) [11]: significant reduction in EZH2
- IC50 ([13]; Homo sapiens, Table 4, WST1 cell viability with different doses on 22Rv1, read-out: IC50 (best-fit value)): 1340 nM
- half-life [15]: 3.5 to 6 h
- EZH2 protein (western blot) [25]: significant reduction in EZH2
- IC50 ([26]; Homo sapiens, Table 5, Cell titer glo test cell viability with different doses on 22Rv1, read-out: IC50 (best-fit value)): 692 nM
SMILES: CCN(c1cc(-c2ccc(CN3CCN(C(=O)CCCCCCCCCC(=O)N[C@H](C(=O)N4C[C@H](O)C[C@H]4C(=O)NCc4ccc(-c5scnc5C)cc4)C(C)(C)C)CC3)cc2)cc(C(=O)NCc2c(C)cc(C)[nH]c2=O)c1C)C1CCOCC1 [Compound 6272]
- Degradation of EED [1]: significant degradation
- Anti-proliferative effect (WST cell viability) ([2]; FIG. 30, SU-DHL6, 4 days' treatment): greater anti-proliferative effect than EPZ-6438
- Anti-proliferative effect (WST cell viability) at 1 μM ([2]; FIG. 32, SU-DHL6, 4 days' treatment, 1 μM): greater anti-proliferative effect than EPZ-6438
- Cell density by imaging [3]: significant reduction in the cell density
- Degradation of SUZ12 [4]: significant degradation
- Colonies [5]: significant reduction in the colonies
- Anti-proliferative effect (WST cell viability) ([6]; FIG. 29, SU-DHL4, 4 days' treatment): greater anti-proliferative effect than EPZ-6438
- HillSlope (best-fit value) [6, 29]: −0.093
- HillSlope (best-fit value) [6, 30]: −0.2858
- HillSlope (best-fit value) [6, 31]: −1.235
- logIC50 (best-fit value) [6, 31]: −0.4722
- Degradation of SUZ12 [7]: significant degradation
- Ability to degrade EZH2 with esiRNA knockdown of VHL ([8]; VHL knockdown): inhibition of the ability of active compounds 6272 to degrade EZH2
- Inhibition of cell proliferation versus EPZ-6438 [9]: more potent and effective at inhibiting cell proliferation than the catalytic EZH2 inhibitor EPZ-6438
- Cell density by imaging [12]: significant reduction in the cell density
- Anti-proliferative effect (WST cell viability) ([13]; FIG. 24, 22Rv1, 5 days' treatment, concentration range): greater anti-proliferative effect than EPZ-6438
- Cell proliferation by phase object confluence [14]: decrease C4-2B proliferation
- Inhibition of proliferation (WST) [16]: similarly potent effects on inhibiting the proliferation
- H3K27me3 levels [17]: reduced H3K27me3 levels
- Inhibition of proliferation (WST) ([18]; LNCaP): similarly potent effects on inhibiting the proliferation
- Anti-proliferative effect (WST cell viability) ([18]; FIG. 23, LNCaP, 5 days' treatment, concentration range): greater anti-proliferative effect than EPZ-6438
- IC50 ([18]; Homo sapiens, Table 3, WST1 test cell viability on LNCaP, [Inhibitor] vs. normalized response, read-out: IC50 (best-fit value)): 758 nM
- Degradation of EZH2 [19]: significant degradation
- Inhibition of cell proliferation versus EPZ-6438 [20]: more potent and effective at inhibiting cell proliferation than the catalytic EZH2 inhibitor EPZ-6438
- Colonies [21]: significant reduction in the colonies
- Reduction of PRC2 component SUZ12 [22]: reduction of PRC2 component SUZ12
- Degradation of EZH2 [23]: significant degradation
- Cell proliferation by phase object confluence [24]: greatest ability to decrease LnCaP proliferation
- Anti-proliferative effect (Cell titer glo cell viability) ([26]; FIG. 25, 22Rv1, 5 days' treatment, concentration range): greater anti-proliferative effect than EPZ-6438
- Degradation of EED [27]: significant degradation
- Degree of ubiquitination of EZH2 [28]: much greater degree of ubiquitination of EZH2 than the inactive compound 6286

SMILES: CCN(c1cc(-c2ccc(CN3CCOCC3)cc2)cc(C(=O)NCc2c(C)cc(C)[nH]c2=O)c1C)C1CCOCC1 [EPZ-6438, reference compound]
- Degradation of EED [1]: little or no effect
- HillSlope (best-fit value) [2, 32]: −0.03015
- logIC50 (best-fit value) [2, 32]: Unstable
- Degradation of SUZ12 [4]: little or no effect
- Colonies [5]: reduction in colonies versus DMSO negative control
- HillSlope (best-fit value) [6, 29]: 0.005835
- HillSlope (best-fit value) [6, 30]: −0.1692
- HillSlope (best-fit value) [6, 31]: −0.4432
- Degradation of SUZ12 [7]: little or no effect
- Colonies [21]: reduction in colonies versus DMSO negative control
- Degradation of EED [27]: little or no effect

- Degradation of EZH2 [10]: strong degradation of EZH2
- EZH2 protein (western blot) [11]: significant reduction in EZH2
- Cmax [15]: 487 nM
- half-life [15]: 6.5 h
- EZH2 protein (western blot) [25]: significant reduction in EZH2
SMILES: CCN(c1cc(-c2ccc(CN3CCN(CCCCCCCCCCCC(=O)N[C@H](C(=O)N4C[C@H](O)C[C@H]4C(=O)NCc4ccc(-c5scnc5C)cc4)C(C)(C)C)CC3)cc2)cc(C(=O)NCc2c(C)cc(C)[nH]c2=O)c1C)C1CCOCC1 [Compound 6287]
- Cell density by imaging [3]: significant reduction in the cell density
- Colonies [5]: significant reduction in the colonies
- Cell density by imaging [12]: significant reduction in the cell density
- Cell proliferation by phase object confluence [14]: decrease C4-2B proliferation
- Inhibition of proliferation (WST) [16]: similarly potent effects on inhibiting the proliferation
- H3K27me3 levels [17]: reduced H3K27me3 levels
- Inhibition of proliferation (WST) ([18]; LNCaP): similarly potent effects on inhibiting the proliferation
- Colonies [21]: significant reduction in the colonies
- Reduction of PRC2 component SUZ12 [22]: reduction of PRC2 component SUZ12
- Cell proliferation by phase object confluence [24]: greatest ability to decrease LnCaP proliferation
